{
  "source": "patent US20090170826A1",
  "about": "“Acid Addition Salt of Optically Active Dihydropyridine Derivative” (Daiichi Sankyo Company ,Limited, priority 2005, published 2009)",
  "key": {"[1]": {"experiment": "Thermal stability test (residual rate of compound (I) by HPLC)", "format": "physicochemical", "protocol": "The test compound was placed in a glass bottle and allowed to stand under the following conditions (1) and (2).\n(1): Closed state, 60° C.;\nThe measurement conditions in high performance liquid chromatography are as follows.\nColumn: L-column ODS [4.6 mm×250 mm, manufactured by Chemicals Evaluation and Research Institute, Japan]\nColumn temperature: 40° C.\nDetection wavelength: 220 nm\nThe residual rate (%) was calculated by the following formula.\nThe residual rate (%)=[1−(sum of peak area percentages of impurities and decomposed products)]×100"}, "[2]": {"experiment": "Absorbability test in dog", "format": "in vivo", "conditions": "fasted male beagle, ranitidine pretreated, oral 10 mg/body in 0.5% methyl cellulose, plasma; for AUC(0-t): read-out: AUC0-24 h", "protocol": "Ranitidine (2.5 mg/kg) was intramuscularly injected to the posterior region of thigh of a fasted male beagle (body weight: about 10 kg, n=6) to make the intragastric pH acidic 30 minutes before, immediately before and 30 minutes after administration of the test compound. The test compound was suspended in a 0.5% methyl cellulose solution at a dose of 10 mg/body and orally administered. About 3 ml of blood was collected from the median antebrachial vein using a heparin-treated glass syringe 0.5, 1, 2, 3, 4, 6, 8 and 24 hours after the administration. The collected blood was centrifuged to obtain plasma which was cryopreserved at −20° C. until measurement of the concentration of the test compound. One hundred μl of thawed plasma was mixed with 300 μl of an internal standard solution [a methanol solution of the d3-compound (Ia), 5 ng/ml] and centrifuged. The supernatant was filtered through a filter and the filtrate was analyzed by LC/MS/MS.\nA calibration curve was prepared by the same operation as above using each 100 μl of a calibration curve standard solution [a methanol solution of the compound (Ia), 0.5-400 ng/ml] which had been adjusted to respective concentrations in place of 100 μl of dog plasma.\nThe LC/MS/MS analysis conditions are shown below.\nThe area under the concentration in plasma-time curve (AUC0-24h) and the maximum concentration in plasma (Cmax) as pharmacokinetic parameters indicative of drug absorbability were calculated from the results obtained according to the aforementioned method using the compounds of Example 1, Example 2 (2C) and Comparative Example 4 as test compounds."}, "[3]": {"conditions": "Condition (1): closed state, 60° C., 1 month"}, "[4]": {"conditions": "Condition (1): closed state, 60° C., 1 week"}, "[5]": {"conditions": "Condition (1): closed state, 60° C., time 0"}, "[6]": {"conditions": "Condition (2): non-closed state, 40° C., humidity 75%, 1 week"}, "[7]": {"conditions": "Condition (2): non-closed state, 40° C., humidity 75%, time 0"}, "[8]": {"conditions": "Condition (2): non-closed state, 40° C., humidity 75%, 1 month"}, "[9]": {"conditions": "Condition (1): closed state, 60° C., 3 months"}},
  "data": [
    {"compound": "CC1=C(C(=O)OC(C)C)[C@@H](c2cccc([N+](=O)[O-])c2)C(C(=O)OC2CN(C(c3ccccc3)c3ccccc3)C2)=C(N)N1.O=S(=O)(O)O", "note": "[Comparative Example 2, (R)-2-Amino-1,4-dihydro-6-methyl-4-(3-nitrophenyl)-3,5-pyridinedicarboxylic Acid 3-(1-diphenylmethylazetidin-3-yl) Ester 5-isopropyl Ester Monosulfate, reference compound]", "values": [
      {"measurement": "Residual rate of Compound (I) (%)", "setting": "[1]; [3]", "value": 24.3, "unit": "%"},
      {"measurement": "Residual rate of Compound (I) (%)", "setting": "[1]; [4]", "value": 25.0, "unit": "%"},
      {"measurement": "Residual rate of Compound (I) (%)", "setting": "[1]; [5]", "value": 93.1, "unit": "%"},
      {"measurement": "Residual rate of Compound (I) (%)", "setting": "[1]; [6]", "value": 8.9, "unit": "%"},
      {"measurement": "Residual rate of Compound (I) (%)", "setting": "[1]; [7]", "value": 93.1, "unit": "%"}
    ]},
    {"compound": "(R)-2-Amino-1,4-dihydro-6-methyl-4-(3-nitrophenyl)-3,5-pyridinedicarboxylic acid 3-(1-diphenylmethylazetidin-3-yl) ester 5-isopropyl Ester Disulfate Dihydrate [Comparative Example 1, reference compound]", "values": [
      {"measurement": "Residual rate of Compound (I) (%)", "setting": "[1]; [3]", "value": 0.4, "unit": "%"},
      {"measurement": "Residual rate of Compound (I) (%)", "setting": "[1]; [4]", "value": 68.0, "unit": "%"},
      {"measurement": "Residual rate of Compound (I) (%)", "setting": "[1]; [5]", "value": 99.3, "unit": "%"},
      {"measurement": "Residual rate of Compound (I) (%)", "setting": "[1]; [8]", "value": 84.4, "unit": "%"},
      {"measurement": "Residual rate of Compound (I) (%)", "setting": "[1]; [6]", "value": 96.8, "unit": "%"},
      {"measurement": "Residual rate of Compound (I) (%)", "setting": "[1]; [7]", "value": 99.3, "unit": "%"}
    ]},
    {"compound": "CC1=C(C(=O)OC(C)C)[C@@H](c2cccc([N+](=O)[O-])c2)C(C(=O)OC2CN(C(c3ccccc3)c3ccccc3)C2)=C(N)N1.Cl.Cl.O.O", "note": "[Example 1, (R)-2-Amino-1,4-dihydro-6-methyl-4-(3-nitro-phenyl)-3,5-pyridinedicarboxylic Acid 3-(1-diphenylmethyl-azetidin-3-yl) Ester 5-isopropyl Ester Dihydrochloride dihydrate]", "values": [
      {"measurement": "Cmax", "setting": "[2]", "value": 168, "unit": "ng/mL"},
      {"measurement": "AUC(0-t)", "setting": "[2]", "value": 1660, "unit": "ng·h/mL"},
      {"measurement": "Residual rate of Compound (I) (%)", "setting": "[1]; [3]", "value": 95.3, "unit": "%"},
      {"measurement": "Residual rate of Compound (I) (%)", "setting": "[1]; [4]", "value": 96.6, "unit": "%"},
      {"measurement": "Residual rate of Compound (I) (%)", "setting": "[1]; [9]", "value": 92.0, "unit": "%"},
      {"measurement": "Residual rate of Compound (I) (%)", "setting": "[1]; [5]", "value": 99.4, "unit": "%"},
      {"measurement": "Residual rate of Compound (I) (%)", "setting": "[1]; [8]", "value": 96.0, "unit": "%"},
      {"measurement": "Residual rate of Compound (I) (%)", "setting": "[1]; [6]", "value": 97.8, "unit": "%"},
      {"measurement": "Residual rate of Compound (I) (%)", "setting": "[1]; Condition (2): non-closed state, 40° C., humidity 75%, 3 months", "value": 94.1, "unit": "%"},
      {"measurement": "Residual rate of Compound (I) (%)", "setting": "[1]; [7]", "value": 99.4, "unit": "%"}
    ]},
    {"compound": "CC1=C(C(=O)OC(C)C)[C@@H](c2cccc([N+](=O)[O-])c2)C(C(=O)OC2CN(C(c3ccccc3)c3ccccc3)C2)=C(N)N1.CS(=O)(=O)O.CS(=O)(=O)O", "note": "[Comparative Example 3, (R)-2-Amino-1,4-dihydro-6-methyl-4-(3-nitrophenyl)-3,5-pyridinedicarboxylic Acid 3-(1-diphenylmethylazetidin-3-yl) Ester 5-isopropyl Ester Dimethanesulfonate, reference compound]", "values": [
      {"measurement": "Residual rate of Compound (I) (%)", "setting": "[1]; [3]", "value": 90.0, "unit": "%"},
      {"measurement": "Residual rate of Compound (I) (%)", "setting": "[1]; [4]", "value": 93.2, "unit": "%"},
      {"measurement": "Residual rate of Compound (I) (%)", "setting": "[1]; [9]", "value": 84.1, "unit": "%"},
      {"measurement": "Residual rate of Compound (I) (%)", "setting": "[1]; [5]", "value": 99.3, "unit": "%"},
      {"measurement": "Residual rate of Compound (I) (%)", "setting": "[1]; [8]", "value": 0.0, "unit": "%"},
      {"measurement": "Residual rate of Compound (I) (%)", "setting": "[1]; [6]", "value": 0.1, "unit": "%"},
      {"measurement": "Residual rate of Compound (I) (%)", "setting": "[1]; [7]", "value": 99.3, "unit": "%"}
    ]},
    {"compound": "Br.Br.CC1=C(C(=O)OC(C)C)[C@@H](c2cccc([N+](=O)[O-])c2)C(C(=O)OC2CN(C(c3ccccc3)c3ccccc3)C2)=C(N)N1.O.O", "note": "[Example 2, (R)-2-Amino-1,4-dihydro-6-methyl-4-(3-nitro-phenyl)-3,5-pyridinedicarboxylic Acid 3-(1-diphenylmethyl-azetidin-3-yl) Ester 5-isopropyl Ester Dihydrobromide dihydrate]", "values": [
      {"measurement": "Cmax", "setting": "[2]", "value": 230, "unit": "ng/mL"},
      {"measurement": "AUC(0-t)", "setting": "[2]", "value": 1930, "unit": "ng·h/mL"},
      {"measurement": "Residual rate of Compound (I) (%)", "setting": "[1]; [3]", "value": 94.2, "unit": "%"},
      {"measurement": "Residual rate of Compound (I) (%)", "setting": "[1]; Condition (1): closed state, 60° C., 1 month, listed as Example 2A, Dihydrobromide dihydrate", "value": 99.7, "unit": "%"},
      {"measurement": "Residual rate of Compound (I) (%)", "setting": "[1]; Condition (1): closed state, 60° C., 1 week, listed as Example 2A, Dihydrobromide dihydrate", "value": 99.8, "unit": "%"},
      {"measurement": "Residual rate of Compound (I) (%)", "setting": "[1]; Condition (1): closed state, 60° C., 1 week, listed as Example 2C, Dihydrobromide dihydrate", "value": 95.0, "unit": "%"},
      {"measurement": "Residual rate of Compound (I) (%)", "setting": "[1]; Condition (1): closed state, 60° C., 3 months, listed as Example 2A, Dihydrobromide dihydrate", "value": 99.7, "unit": "%"},
      {"measurement": "Residual rate of Compound (I) (%)", "setting": "[1]; Condition (1): closed state, 60° C., 3 months, listed as Example 2C, Dihydrobromide dihydrate", "value": 94.5, "unit": "%"},
      {"measurement": "Residual rate of Compound (I) (%)", "setting": "[1]; [5]", "value": 99.8, "unit": "%"},
      {"measurement": "Residual rate of Compound (I) (%)", "setting": "[1]; Condition (1): closed state, 60° C., time 0, listed as Example 2C, Dihydrobromide dihydrate", "value": 99.1, "unit": "%"},
      {"measurement": "Residual rate of Compound (I) (%)", "setting": "[1]; [8]", "value": 92.1, "unit": "%"},
      {"measurement": "Residual rate of Compound (I) (%)", "setting": "[1]; Condition (2): non-closed state, 40° C., humidity 75%, 1 month, listed as Example 2A, Dihydrobromide dihydrate", "value": 99.6, "unit": "%"},
      {"measurement": "Residual rate of Compound (I) (%)", "setting": "[1]; [6]", "value": 95.5, "unit": "%"},
      {"measurement": "Residual rate of Compound (I) (%)", "setting": "[1]; Condition (2): non-closed state, 40° C., humidity 75%, 1 week, listed as Example 2A, Dihydrobromide dihydrate", "value": 99.7, "unit": "%"},
      {"measurement": "Residual rate of Compound (I) (%)", "setting": "[1]; Condition (2): non-closed state, 40° C., humidity 75%, 3 months, listed as Example 2A, Dihydrobromide dihydrate", "value": 99.4, "unit": "%"},
      {"measurement": "Residual rate of Compound (I) (%)", "setting": "[1]; Condition (2): non-closed state, 40° C., humidity 75%, 3 months, listed as Example 2C, Dihydrobromide dihydrate", "value": 90.6, "unit": "%"},
      {"measurement": "Residual rate of Compound (I) (%)", "setting": "[1]; [7]", "value": 99.8, "unit": "%"},
      {"measurement": "Residual rate of Compound (I) (%)", "setting": "[1]; Condition (2): non-closed state, 40° C., humidity 75%, time 0, listed as Example 2C, Dihydrobromide dihydrate", "value": 99.1, "unit": "%"}
    ]},
    {"compound": "CC1=C(C(=O)OC(C)C)[C@@H](c2cccc([N+](=O)[O-])c2)C(C(=O)OC2CN(C(c3ccccc3)c3ccccc3)C2)=C(N)N1", "note": "[Comparative Example 4, (R)-2-Amino-1,4-dihydro-6-methyl-4-(3-nitrophenyl)-3,5-pyridinedicarboxylic Acid 3-(1-diphenylmethylazetidin-3-yl) Ester 5-isopropyl Ester, reference compound]", "values": [
      {"measurement": "Cmax", "setting": "[2]", "value": 161, "unit": "ng/mL"},
      {"measurement": "AUC(0-t)", "setting": "[2]", "value": 1500, "unit": "ng·h/mL"}
    ]}
  ]
}
